Data: patent EP0563345B1, “NOVEL 4-ARYLPIPERAZINES AND 4-ARYLPIPERIDINES” (MCNEILAB, INC., priority 1991, dated 1993)
Like-named read-outs stand apart in the source and are kept apart here.

Assays:
Male, Fischer 344 rats = test: Block of Conditioned Avoidance Responding (Rat) test (CAR); details: for CAR 5 mg/kg IP Administration (% change CAR) / CAR 15 mg/kg IP Administration (% change CAR): negative number = blockade of CAR; for CAR IP Administration (% change CAR) at 30 mg/kg: 30 mg/kg IP
Excerpt: Apparatus: Rat operant chambers, housed within sound attenuated booths, both from Capden Instruments Ltd., were used in this test. The test chamber (8" H x […] D) is constructed of aluminum and plexiglass with floor grid bars of stainless-steel (1/8" O.D.) spaced 9/16" apart. A stainless-steel operation level 1-1/2" wide projects 3/4" into the chamber and is positioned 2-2/8" above the grid floor. The shock stimulus is delivered via the grid floor by a Coulbourn Instruments solid state module. The parameters of the test and the collection of data are controlled automatically.
The rats are trained for two weeks to approach criterion levels in the avoidance test (90% avoidance rate). One-hour training sessions are run at about the same time each day for four or five days a week. The training session consists of 120 trials, with the conditioned stimuli presented every 30 sec. A trial begins with presentation of the conditioned stimuli (a light and a tone). If the rat responds by depressing the operant lever during the 15-second presentation of the conditioned stimuli, the trial is terminated and the animal is credited with a CAR. Failure to respond during the conditioned stimuli causes the presentation of the unconditioned stimulus (UCS), a 0.7 mA shock which is accompanied by a light and tone for five seconds. If the rat depressed the lever within the ten-second period, the shock and trial are terminated and an escape response recorded. If the rat fails to depress the lever during the UCS (shock), the trial is terminated after ten seconds of shock and the absence of a response is scored as a failure to escape. Intertrial level presses have no effect. If a rat performs at the 90% CAR level for two weeks, it is then run twice a week on the test schedule (see below) until baseline performance stabilized.
Trained rats are run in a one-hour session on two consecutive days at the same time and in the same test chamber each day. The sessions consist of 60 trials, one every minute. The conditioned stimuli are presented for 15 sec (maximum) and the unconditioned stimuli five sec (maximum). On Day 1, a vehicle solution is administered to the rats at a time preceding the trial run corresponding to the pretreatment time for the test compound. The route of administration and the volume of vehicle are also matched to that of the test compound.
The percent change in CAR on the drug treatment day compared to vehicle pretreatment day is the key measure. The percent change (% change) in CAR is determined using the following formula: % change CAR = ((% CAR for Day 2/% CAR for Day 1) x 100)-100 [formula]
A negative number indicates a blockade of CAR, whereas a positive number would indicate increased CAR. The test results are reported as the mean % change for the group of rats. Failure to escape, a measure of the general sedative potential of the compound, was calculated for each animal as follows: % Failures = # of Failures to Escape/# of trials [formula]
The % failures, viz., loss of escape, is also reported as a group mean. Failures to escape are monitored closely and a session is terminated if ten failures occurred.
In the Tables and formulas therein, OiPr is isopropoxy, Me is methyl, MeO is methoxy, Et is ethyl, Ph is phenyl, n-Bu is normal butyl, cC6H11 is cyclohexyl, BOC is t-butyloxycarbonyl, Ac is acetyl, and NT is not tested in that partcular test. The escape loss numbers are shown at CAR 5 mg/kg unless otherwise noted.

Male Charles-River rats = test: Rat Glass Bead Test (propulsive motility of the distal colon); format: in vivo; details: mean expulsion time of glass bead
Description: The rat glass bead test is used to evaluate the action of compounds on propulsive motility of the distal colon. Male Charles-River rats weighing 50-90 grams are fasted for at least 18 hours in individual cages with water provided. Groups of rats are then dosed by the indicated route at the appropriate pretreatment time. A 4 mm glass bead is then inserted 3.5 cm into the distal colon through the anus using a 4 mm diameter glass rod. Rats are then placed in open top glass jars and observed for 60 minutes. The time for expulsion of the bead is noted for each rat. Rats not expelling the bead after 60 minutes are necropsied and the presence of the bead in the colon confirmed. […] Statistical analysis is done using one way analysis of variance and Fisher's LSD comparison. A probability of less than 0.05 is considered to be statistically significant.

[1] = biological target: T1, D-2 (dopamine-2) receptors (Rattus norvegicus, UniProt P61169); test: biochemical; format: binding, male, Wistar rats
T1 construct: The D2 assay employed a P2 fraction from the striatum, the ligand ^3H-spiperone at a concentration of 0.05 nM; from tissue; host or cells: rat striatum, P2 fraction (synaptosomal membranes), male Wistar rats
Description: The dopamine D2 binding activity of compounds was determined using a P2 fraction (synaptosomal membranes) prepared from male, Wistar rats.
The data from this assay were analyzed by calculating the percent inhibition of the binding of the tritiated ligands by given concentrations of the test compound. Kl values, where given, were obtained from the logit analysis of concentration-inhibition curves.

[2] = rat striatum P2 fraction, 3H-spiperone 0.05 nM, read-out: Receptor Binding (Ki nM) D2

T1 sequence (P61169 whole entry): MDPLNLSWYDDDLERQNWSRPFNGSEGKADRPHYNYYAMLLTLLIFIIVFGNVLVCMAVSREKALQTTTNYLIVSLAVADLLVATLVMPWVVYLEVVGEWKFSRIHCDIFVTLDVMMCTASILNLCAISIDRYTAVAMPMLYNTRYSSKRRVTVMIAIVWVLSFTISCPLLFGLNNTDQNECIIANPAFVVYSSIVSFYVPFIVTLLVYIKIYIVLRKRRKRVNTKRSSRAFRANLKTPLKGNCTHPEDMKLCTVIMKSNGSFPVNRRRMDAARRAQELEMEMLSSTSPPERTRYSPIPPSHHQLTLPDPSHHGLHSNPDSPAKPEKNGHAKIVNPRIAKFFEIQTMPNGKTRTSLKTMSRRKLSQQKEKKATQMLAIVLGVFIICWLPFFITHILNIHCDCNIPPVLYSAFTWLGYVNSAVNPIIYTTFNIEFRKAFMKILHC

SMILES	CAR 5 mg/kg IP Administration (% change CAR) (Male, Fischer 344 rats) [%]	(Escape Loss) % failures to escape (Male, Fischer 344 rats; at CAR 5 mg/kg IP) [%]	Ki [1, 2] [nM]	CAR 15 mg/kg IP Administration (% change CAR) (Male, Fischer 344 rats) [%]	(Escape Loss) % failures to escape (Male, Fischer 344 rats; at CAR 15 mg/kg IP) [%]	also measured
CC(=O)N(C)C(=O)c1cccc(CN2CCN(c3ccccc3OC(C)C)CC2)c1 [Compound 73]	-48	22	–	–	–	Glass bead expulsion time (Male Charles-River rats; PO, 40.0 mg/kg): 25 min
O=C(c1cccc(CN2CCN(c3ncccn3)CC2)c1)N1CCc2ccccc21 [Compound 23]	–	–	> 1000	-62	9	–
CC(C)Oc1ccccc1N1CCN(Cc2cccc(C(=O)N3CCOCC3)c2)CC1 [Compound 56]	–	–	–	–	–	Glass bead expulsion time (Male Charles-River rats; IP, 1.0 mg/kg): 15 min
CCOC(=O)C1CCCCN1C(=O)c1cccc(CN2CCN(c3ccccc3C)CC2)c1 (stereo not shown) [Compound 18]	–	–	132	-24	9	–
CCOC(=O)C1CCN(C(=O)c2cccc(CN3CCN(c4ccccc4OC(C)C)CC3)c2)CC1 [Compound 42]	-18	0	121	–	–	–
CC(C)Oc1ccccc1N1CCN(Cc2cccc(C(=O)N3CCCCCCC3=O)c2)CC1 [Compound 67]	-28	7	10.2	–	–	–
CC(C)Oc1ccccc1N1CCN(Cc2cccc(C(=O)N3C(C)(C)CCCC3(C)C)c2)CC1 [Compound 12]	–	–	4.7	-92	9	–
CC(C)Oc1ccccc1N1CCN(Cc2cccc(C(=O)N3CCN(c4ccccc4OC(C)C)CC3)c2)CC1 [Compound 50]	0	1	171	–	–	–
CC(C)Oc1ccccc1C1CCN(Cc2cccc(C(=O)N3CCCCC3)c2)CC1.Cl [Compound 38, 1-[3-[[4-[2-(1-Methylethoxy)phenyl]-1-piperidinyl]methyl]benzoyl]-piperidine hydrochloride]	-92	5	2.8	–	–	–
CC(C)Oc1ccccc1N1CCN(Cc2cccc(C(=O)N(C)Cc3ccccc3)c2)CC1 [Compound 74]	-23	1	13	–	–	–
COc1ccc(OC)c(N2CCN(Cc3cccc(C(=O)N4CCCCC4)c3)CC2)c1 [Compound 46]	-66	48	592	–	–	–
C[C@@H]1CCC[C@H](C)N1C(=O)c1cccc(CN2CCN(c3ccc(Cl)c(Cl)c3)CC2)c1 [Compound 14]	–	–	6.5	-63	3	–
CC(C)Oc1ccccc1N1CCN(Cc2cccc(S(=O)(=O)N3CCCC3)c2)CC1 [Compound 106]	-27	0	196	–	–	–
CC(C)Oc1ccccc1N1CCN(Cc2cccc(C(=O)Nc3ccc(F)cc3)c2)CC1 [Compound 75]	–	–	~30	–	–	CAR IP Administration (% change CAR) at 30 mg/kg (Male, Fischer 344 rats): -1%; (Escape Loss) % failures to escape (Male, Fischer 344 rats; at CAR 30 mg/kg IP): 0%
CC(C)Oc1ccccc1N1CCN(Cc2cccc(C(=O)N3CCC[C@H]3CO)c2)CC1 [Compound 16]	–	–	5.1	-99	35	–
CC(=O)Nc1ccc(CN2CCN(c3ccccc3OC(C)C)CC2)cc1C(=O)N1CCCCC1 [Compound 28]	–	–	29	-100	17	–
CC(C)Oc1ccccc1N1CCN(Cc2cccc(C(=O)N3CCCC3CO)c2)CC1 (stereo not shown) [Compound 26]	–	–	9	-100	43	–

SMILES	CAR 5 mg/kg IP Administration (% change CAR) (Male, Fischer 344 rats) [%]	(Escape Loss) % failures to escape (Male, Fischer 344 rats; at CAR 5 mg/kg IP) [%]	Ki [1, 2] [nM]	CAR 15 mg/kg IP Administration (% change CAR) (Male, Fischer 344 rats) [%]	(Escape Loss) % failures to escape (Male, Fischer 344 rats; at CAR 15 mg/kg IP) [%]	also measured
CC(C)Oc1ccccc1N1CCN(Cc2cccc(C(=S)N3CCCCC3)c2)CC1.Cl [Compound 1, 1-[3-[[4-[2-(1-Methylethoxy)phenyl]-1-piperazinyl]methyl]thiobenzoyl]piperidine Hydrochloride]	-71	20	8	–	–	–
CC(C)Oc1ccccc1C1CCN(Cc2cccc(C(=O)N3CCOCC3)c2)CC1 [Compound 41]	-96	70	9.6	–	–	–
CC(C)Oc1ccccc1N1CCN(Cc2cccc(C(=O)NCCCCCCN)c2)CC1 [Compound 97]	–	–	15	-99	26	–
CCN1CCCC1CNC(=O)c1cccc(CN2CCN(c3ccccc3OC(C)C)CC2)c1 (stereo not shown) [Compound 76]	–	–	13.9	-75	0	–
CC(C)Oc1ccccc1N1CCN(Cc2cccc(C(=O)N3CCC4CCCCC4C3)c2)CC1 (stereo not shown) [Compound 61]	-36	3	11.4	–	–	–
CC(C)Oc1ccccc1N1CCN(Cc2cccc(C(=O)N3CCN(Cc4ccccc4)CC3)c2)CC1 [Compound 64]	–	–	40	–	–	CAR IP Administration (% change CAR) at 30 mg/kg (Male, Fischer 344 rats): -23%; (Escape Loss) % failures to escape (Male, Fischer 344 rats; at CAR 30 mg/kg IP): 2%
CC(C)Oc1ccccc1N1CCN(Cc2cccc(C(=O)N3CCC[C@H]3C(=O)OCc3ccccc3)c2)CC1 [Compound 13]	–	–	10	-4	0	–
O=C(c1cccc(CN2CCN(c3cc(Cl)cc(Cl)c3)CC2)c1)N1CCCCC1 [Compound 94]	-43	3	21	–	–	–
CC(C)Oc1ccccc1N1CCN(Cc2cccc(C(=O)N3CCC4(CC3)OCCO4)c2)CC1 [Compound 45]	-95	20	–	–	–	Ki [1]: 20 nM
CC(C)Oc1ccccc1N1CCN(Cc2cccc(C(=O)N(C)CCc3ccccc3)c2)CC1 [Compound 43]	–	–	19	-77	0	–
CC(C)Oc1ccccc1N1CCN(Cc2cccc(C(=O)N3CCC(=O)CC3)c2)CC1 [Compound 44]	-68	16	–	–	–	Ki [1]: 42 nM
COc1ccc(CN2CCN(c3ccccc3OC(C)C)CC2)cc1C(=O)N1CCCCC1 [Compound 29]	-98	50	32	–	–	–
COc1ccc(CN2CCC(c3ccccc3OC(C)C)CC2)cc1C(=O)N1[C@H](C)CCC[C@@H]1C [Compound 15]	–	–	43	-86	30	–
CC(C)Oc1ccccc1N1CCN(Cc2ccc(N)c(C(=O)N3CCCCC3)c2)CC1 [Compound 17]	–	–	6.4	-100	87	–
CC(C)Oc1ccccc1N1CCN(Cc2cccc(C(=O)NCCCCCCNC(=O)OC(C)(C)C)c2)CC1 [Compound 98]	–	–	88	-8	0	–
CC(C)Oc1ccccc1N1CCN(Cc2cccc(S(=O)(=O)N3CCC(O)CC3)c2)CC1 [Compound 107, 1-[3-[[4[2-(1-Methylethoxy)phenyl]-1-piperazinyl]methyl]phenylsulfonyl]-4-hydroxypiperidine]	-95	5	69	–	–	–
